From paper PMC3914206

Legend:
Format in all cases: binding
Set-up in all cases: KINOMEscan: ABL1(F317L)-phosphorylated / KINOMEscan: ABL1(H396P)-nonphosphorylated / KINOMEscan: ABL1(H396P)-phosphorylated / KINOMEscan: ABL1(M351T)-phosphorylated / KINOMEscan: ABL1(T315I)-phosphorylated / KINOMEscan: ABL1-nonphosphorylated / KINOMEscan: ABL1-phosphorylated / KINOMEscan: ACVR2A / KINOMEscan: ACVR2B / KINOMEscan: ADCK3 / KINOMEscan: ADCK4 / KINOMEscan: AKT1 / KINOMEscan: AKT3 / KINOMEscan: ALK / KINOMEscan: ARK5 / KINOMEscan: AURKA / KINOMEscan: AURKC / KINOMEscan: BIKE / KINOMEscan: BMPR1A / KINOMEscan: BMPR1B / KINOMEscan: BMX / KINOMEscan: BRK / KINOMEscan: BRSK1 / KINOMEscan: BRSK2 / KINOMEscan: CAMK1 / KINOMEscan: CAMK1D / KINOMEscan: CAMK1G / KINOMEscan: CAMK2A / KINOMEscan: CAMK2B / KINOMEscan: AAK1 / KINOMEscan: CAMK2D / KINOMEscan: CAMK2G / KINOMEscan: ABL1(F317I)-nonphosphorylated / KINOMEscan: ABL1(F317I)-phosphorylated / KINOMEscan: ABL1(F317L)-nonphosphorylated: unit: % Ctrl
Settings in all cases: Compound Concentration 10 µM
[1] = molecular target: T1, panel of 442 kinases (Homo sapiens, UniProt P49761)
T1 construct: purchased KINOMEscan
Text: (§1) We assessed the selectivity of members of this scaffold using the KINOMEscan methodology across a near comprehensive panel of 442 kinases [[18,27]].

[2] = molecular target: T2, panel of 442 kinases (Homo sapiens, UniProt Q9UQB9)
T2 construct: purchased KINOMEscan
T2 sequence (Q9UQB9 1-309): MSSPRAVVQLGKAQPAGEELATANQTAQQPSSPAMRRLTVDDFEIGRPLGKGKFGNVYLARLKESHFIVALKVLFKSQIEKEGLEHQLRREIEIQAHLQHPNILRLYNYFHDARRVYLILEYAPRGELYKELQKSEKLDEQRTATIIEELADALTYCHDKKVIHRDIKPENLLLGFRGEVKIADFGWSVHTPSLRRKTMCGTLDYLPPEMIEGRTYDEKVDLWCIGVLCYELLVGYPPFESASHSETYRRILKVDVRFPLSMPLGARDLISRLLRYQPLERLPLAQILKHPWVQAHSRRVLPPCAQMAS
Text: as §1

[3] = molecular target: T3, panel of 442 kinases (Homo sapiens, UniProt P80192)
T3 construct: purchased KINOMEscan
Text: as §1

T3 sequence (P80192 whole entry): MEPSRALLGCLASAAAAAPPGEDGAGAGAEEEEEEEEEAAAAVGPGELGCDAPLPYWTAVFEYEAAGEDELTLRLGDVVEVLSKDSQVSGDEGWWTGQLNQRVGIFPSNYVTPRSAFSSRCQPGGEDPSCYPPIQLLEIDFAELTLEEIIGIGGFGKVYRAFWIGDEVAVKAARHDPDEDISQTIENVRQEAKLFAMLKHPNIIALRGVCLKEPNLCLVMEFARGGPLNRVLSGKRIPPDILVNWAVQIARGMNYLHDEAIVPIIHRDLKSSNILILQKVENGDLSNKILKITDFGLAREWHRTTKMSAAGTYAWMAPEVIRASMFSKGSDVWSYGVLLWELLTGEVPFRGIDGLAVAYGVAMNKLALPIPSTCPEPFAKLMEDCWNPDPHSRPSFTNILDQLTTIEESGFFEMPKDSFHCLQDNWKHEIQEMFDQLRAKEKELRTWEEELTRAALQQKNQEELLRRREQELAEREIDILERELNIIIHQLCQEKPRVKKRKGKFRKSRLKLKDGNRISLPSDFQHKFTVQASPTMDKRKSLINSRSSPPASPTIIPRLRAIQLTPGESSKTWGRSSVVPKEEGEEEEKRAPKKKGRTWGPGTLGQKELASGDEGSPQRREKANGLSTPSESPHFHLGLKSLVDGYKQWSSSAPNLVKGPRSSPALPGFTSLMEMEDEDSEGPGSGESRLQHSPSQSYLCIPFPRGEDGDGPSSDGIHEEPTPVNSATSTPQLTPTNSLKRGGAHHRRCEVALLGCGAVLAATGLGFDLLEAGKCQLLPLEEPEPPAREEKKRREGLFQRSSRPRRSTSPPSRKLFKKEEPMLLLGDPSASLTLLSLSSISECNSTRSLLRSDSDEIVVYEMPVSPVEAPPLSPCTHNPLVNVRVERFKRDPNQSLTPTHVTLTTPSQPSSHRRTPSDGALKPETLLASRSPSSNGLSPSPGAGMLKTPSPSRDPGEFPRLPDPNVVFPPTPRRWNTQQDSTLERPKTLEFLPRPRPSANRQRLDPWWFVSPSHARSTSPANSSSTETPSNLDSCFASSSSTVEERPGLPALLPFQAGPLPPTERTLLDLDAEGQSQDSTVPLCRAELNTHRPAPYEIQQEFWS
T1 sequence (P49761 whole entry): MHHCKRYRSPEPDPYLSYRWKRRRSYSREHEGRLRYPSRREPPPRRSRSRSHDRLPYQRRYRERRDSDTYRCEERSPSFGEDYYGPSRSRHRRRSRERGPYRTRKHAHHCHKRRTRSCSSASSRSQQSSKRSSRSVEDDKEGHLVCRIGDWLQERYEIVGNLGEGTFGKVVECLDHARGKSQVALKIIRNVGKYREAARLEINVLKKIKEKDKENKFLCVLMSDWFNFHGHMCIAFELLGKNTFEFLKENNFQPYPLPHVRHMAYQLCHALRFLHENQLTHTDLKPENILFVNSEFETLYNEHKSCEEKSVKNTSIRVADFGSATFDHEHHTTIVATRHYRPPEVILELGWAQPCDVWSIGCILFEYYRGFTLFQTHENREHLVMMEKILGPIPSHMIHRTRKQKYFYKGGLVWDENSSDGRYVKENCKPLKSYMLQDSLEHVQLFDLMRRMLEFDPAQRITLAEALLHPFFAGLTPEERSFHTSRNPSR

Structure (SMILES) | KINOMEscan: CLK3 [1] | KINOMEscan: AURKC [2] | KINOMEscan: MLK1 [3]
COc1cc(C(=O)N2CCC(N3CCN(C)CC3)CC2)ccc1Nc1ncc2c(n1)N(C)c1ccccc1C(=O)N2C [15 (LRRK2-IN-1)] | 95 | 50 | 93
COc1cc(C(=O)N2CCC(N3CCN(C)CC3)CC2)ccc1Nc1ncc2c(n1)N1CCc3cccc(c31)C(=O)N2C [Compound 24] | 80 | 50 | 85
COc1cc(C(=O)N2CCC(N3CCN(C)CC3)CC2)ccc1Nc1ncc2c(n1)N(C1CCCC1)c1ccccc1C(=O)N2C [Compound 25, 11-cyclopentyl-2-((2-methoxy-4-(4-(4-methylpiperazin-1-yl)piperidine-1-carbonyl)phenyl)amino)-5-methyl-5H-benzo[e]pyrimido[5,4-b][1,4]diazepin-6(11H)-one] | 100 | 38 | 100
CCOc1cc(C(=O)N2CCC(N3CCN(C)CC3)CC2)ccc1Nc1ncc2c(n1)N(C1CCCC1)c1ccccc1C(=O)N2C [Compound 26] | 100 | 66 | 100
